# Assay results as given in ChEMBL document CHEMBL1132006, “Synthesis and biological evaluation of coumarincarboxylic acids as inhibitors of gyrase B. L-rhamnose as an effective substitute for L-noviose” (1999).
# Legend:
# Staphylococcus aureus [1] = assay: In vitro antibacterial activity against Staphylococcus aureus 011HT3 strain; assay type: functional
# Enterococcus faecium = assay: In vitro antibacterial activity against Enterococcus faecium 02D31P2 VanTeiEry-R strain; assay type: functional
# Staphylococcus aureus [2] = assay: In vitro antibacterial activity against Staphylococcus aureus 011GO76 OfloOxaEry-R strain; assay type: functional
# [3] = test system: Staphylococcus epidermidis; assay: In vitro antibacterial activity against Staphylococcus epidermidis 012GO39 OxaTei-R strain; assay type: functional
# Staphylococcus aureus [4] = assay: In vitro antibacterial activity against Staphylococcus aureus 011HT1 Nov-R strain; assay type: functional
# Streptococcus pyogenes = assay: In vitro antibacterial activity against Streptococcus pyogenes O2A1UC1 strain
Compound,MIC (Staphylococcus aureus [1]),MIC (Enterococcus faecium),MIC (Staphylococcus aureus [2]),MIC [3],MIC (Staphylococcus aureus [4]),MIC (Streptococcus pyogenes)
CO[C@@H]1[C@@H](OC(=O)c2ccc(C)[nH]2)[C@@H](O)[C@H](Oc2ccc3c(C)c(CCC(=O)O)c(=O)oc3c2C)O[C@H]1C,> 40 µg/mL,> 40 µg/mL,> 40 µg/mL,> 40 µg/mL,> 40 µg/mL,40 µg/mL
CO[C@@H]1[C@@H](OC(=O)c2ccc(C)[nH]2)[C@@H](O)[C@H](Oc2ccc3c(C)c(CC(=O)O)c(=O)oc3c2C)O[C@H]1C,> 40 µg/mL,> 40 µg/mL,> 40 µg/mL,> 40 µg/mL,> 40 µg/mL,40 µg/mL
COC(=O)Cc1cc(=O)oc2cc(O[C@@H]3O[C@@H](C)[C@H](OC)[C@@H](OC(=O)c4ccc(C)[nH]4)[C@H]3O)ccc12,> 40 µg/mL,> 40 µg/mL,> 40 µg/mL,> 40 µg/mL,> 40 µg/mL,> 40 µg/mL
CO[C@@H]1[C@@H](OC(=O)c2ccc(C)[nH]2)[C@@H](O)[C@H](Oc2ccc3cc(C(=O)O)c(=O)oc3c2C)O[C@H]1C,> 40 µg/mL,> 40 µg/mL,> 40 µg/mL,> 40 µg/mL,> 40 µg/mL,40 µg/mL
CO[C@@H]1[C@@H](OC(=O)c2ccc(C)[nH]2)[C@@H](O)[C@H](Oc2ccc3c(CC(=O)O)cc(=O)oc3c2)O[C@H]1C,> 40 µg/mL,> 40 µg/mL,> 40 µg/mL,> 40 µg/mL,> 40 µg/mL,> 40 µg/mL
CO[C@@H]1[C@@H](OC(=O)c2ccc(C)[nH]2)[C@@H](O)[C@H](Oc2ccc3c(C(=O)O)cc(=O)oc3c2C)O[C@H]1C,> 40 µg/mL,> 40 µg/mL,> 40 µg/mL,> 40 µg/mL,> 40 µg/mL,> 40 µg/mL
CCCc1cc(O[C@@H]2O[C@@H](C)[C@H](OC)[C@@H](OC(=O)c3ccc(C)[nH]3)[C@H]2O)c(C)c2oc(=O)c(C(=O)O)cc12,10 µg/mL,> 40 µg/mL,40 µg/mL,10 µg/mL,> 40 µg/mL,> 40 µg/mL
CO[C@@H]1[C@@H](OC(=O)c2ccc(C)[nH]2)[C@@H](O)[C@H](Oc2ccc3c(O)c(NC(=O)c4ccc(O)c(CC=C(C)C)c4)c(=O)oc3c2Cl)OC1(C)C [CHLOROBIOCIN],< 0.04 µg/mL,–,< 0.04 µg/mL,< 0.04 µg/mL,0.15 µg/mL,< 0.04 µg/mL
CO[C@@H]1[C@@H](OC(N)=O)[C@@H](O)[C@H](Oc2ccc3c(O)c(NC(=O)c4ccc(O)c(CC=C(C)C)c4)c(=O)oc3c2C)OC1(C)C [NOVOBIOCIN],< 0.04 µg/mL,0.3 µg/mL,< 0.04 µg/mL,0.08 µg/mL,20 µg/mL,0.15 µg/mL

# More lines, now with the values ahead:
MIC (Staphylococcus aureus [1]),MIC (Enterococcus faecium),MIC (Staphylococcus aureus [2]),MIC [3],MIC (Staphylococcus aureus [4]),MIC (Streptococcus pyogenes),Compound
10 µg/mL,> 40 µg/mL,40 µg/mL,10 µg/mL,> 40 µg/mL,> 40 µg/mL,CO[C@@H]1[C@@H](OC(=O)c2ccc(C)[nH]2)[C@@H](O)[C@H](Oc2ccc3c(CC(=O)O)cc(=O)oc3c2C)O[C@H]1C
0.08 µg/mL,0.6 µg/mL,0.3 µg/mL,0.3 µg/mL,5 µg/mL,0.3 µg/mL,CCCCCCCc1cc(O[C@@H]2O[C@@H](C)[C@H](OC)[C@@H](OC(=O)c3ccc(C)[nH]3)[C@H]2O)c(C)c2oc(=O)c(C(=O)O)cc12
0.15 µg/mL,2.5 µg/mL,0.6 µg/mL,0.6 µg/mL,2.5 µg/mL,0.3 µg/mL,CCCCCCCc1cc(O[C@@H]2O[C@@H](C)[C@H](OC)[C@@H](OC(=O)c3ccc(C)[nH]3)[C@H]2O)c(C)c2oc(=O)c(C(=O)NS(=O)(=O)c3ccccc3)cc12
2.5 µg/mL,> 40 µg/mL,5 µg/mL,2.5 µg/mL,> 40 µg/mL,10 µg/mL,CO[C@@H]1[C@@H](OC(=O)c2ccc(C)[nH]2)[C@@H](O)[C@H](Oc2ccc3c(CC(=O)O)cc(=O)oc3c2C)OC1(C)C
< 0.04 µg/mL,0.3 µg/mL,0.15 µg/mL,< 0.04 µg/mL,2.5 µg/mL,< 0.04 µg/mL,CCCCCc1cc(O[C@@H]2OC(C)(C)[C@H](OC)[C@@H](OC(=O)c3ccc(C)[nH]3)[C@H]2O)c(C)c2oc(=O)c(C(=O)O)cc12
0.08 µg/mL,> 40 µg/mL,5 µg/mL,40 µg/mL,> 40 µg/mL,0.3 µg/mL,CCCCCCCCCCCCc1cc(O[C@@H]2O[C@@H](C)[C@H](OC)[C@@H](OC(=O)c3ccc(C)[nH]3)[C@H]2O)c(C)c2oc(=O)c(C(=O)O)cc12
0.6 µg/mL,2.5 µg/mL,2.5 µg/mL,0.6 µg/mL,20 µg/mL,1.2 µg/mL,CCCCCc1cc(O[C@@H]2O[C@@H](C)[C@H](OC)[C@@H](OC(=O)c3ccc(C)[nH]3)[C@H]2O)c(C)c2oc(=O)c(C(=O)O)cc12
2.5 µg/mL,20 µg/mL,5 µg/mL,2.5 µg/mL,> 40 µg/mL,5 µg/mL,CO[C@@H]1[C@@H](OC(=O)c2ccc(C)[nH]2)[C@@H](O)[C@H](Oc2cc(Cc3ccccc3)c3cc(C(=O)O)c(=O)oc3c2C)O[C@H]1C
